Experimental data reported in patent publication US11872202B2, “Pleuromutilin cinnamic acid ester compounds with activities against antibiotic-resistant infections” (SHAANXI UNIVERSITY OF SCIENCE AND TECHNOLOGY, priority 2021, dated 2024).
In brackets after ≈: the same amount, converted by molar mass. Where two headings read alike, the source gives them in different places.

How the values were obtained:
Experiment in all cases: MIC, micro-broth dilution method
Format in all cases: cell-based
[1] = tested on: Methicillin-resistant Staphylococcus aureus ATCC33591
Description: (§1) The minimum inhibitory concentration (MIC) of pleuromutilin cinnamate easters and their starting materials was tested by a micro-broth dilution method, with retamoline, vornimulin and tiamulin as positive controls.
(§2) The experimental strains included Gram-positive bacteria: Methicillin-sensitive Staphylococcus epidermidis ATCC12228, Staphylococcus aureus ATCC29213 and ATCC25923, and Methicillin-resistant Staphylococcus aureus ATCC33591; Gram-negative bacteria: Acinetobacter baumannii ATCC19606 and E. coli Bacillus ATCC25922 (the strains used were from the American type culture collection (ATCC)).

[2] = tested on: Staphylococcus aureus ATCC29213
Description: as §1, §2

[3] = tested on: Staphylococcus aureus ATCC25923
Description: as §1, §2

[4] = tested on: Acinetobacter baumannii ATCC19606
Description: as §1, §2

[5] = tested on: Escherichia coli ATCC25922
Description: as §1, §2

[6] = tested on: Methicillin-sensitive Staphylococcus epidermidis ATCC12228; details: for inhibitory effect compared with the three tested positive controls: methicillin-sensitive Staphylococcus epidermidis, statement in words from Table 1
Description: as §1, §2

[7] = Methicillin-resistant Staphylococcus aureus ATCC33591, 37° C., 20-22 h, read-out: Minimum inhibitory concentration
[8] = Staphylococcus aureus ATCC29213, 37° C., 20-22 h, read-out: Minimum inhibitory concentration
[9] = Staphylococcus aureus ATCC25923, 37° C., 20-22 h, read-out: Minimum inhibitory concentration
[10] = Acinetobacter baumannii ATCC19606, 37° C., 20-22 h, read-out: Minimum inhibitory concentration
[11] = Escherichia coli ATCC25922, 37° C., 20-22 h, read-out: Minimum inhibitory concentration
[12] = Methicillin-sensitive Staphylococcus epidermidis ATCC12228, 37° C., 20-22 h, read-out: Minimum inhibitory concentration

SMILES | MIC [1, 7] | MIC [2, 8] | MIC [3, 9] | MIC [4, 10] | MIC [5, 11] | MIC [6, 12] | inhibitory effect compared with the three tested positive controls [6] | MIC ([1]; Staphylococcus aureus, ATCC33591, read-out: Minimum inhibitory concentration) | MIC ([2]; Staphylococcus aureus, ATCC29213, read-out: Minimum inhibitory concentration) | MIC ([3]; Staphylococcus aureus, ATCC25923, read-out: Minimum inhibitory concentration) | MIC ([4]; Acinetobacter baumannii, ATCC19606, read-out: Minimum inhibitory concentration) | MIC ([5]; Escherichia coli, ATCC25922, read-out: Minimum inhibitory concentration) | MIC ([6]; Staphylococcus epidermidis, ATCC12228, read-out: Minimum inhibitory concentration) | inhibition compared with tiamulin ([4]; Acinetobacter baumannii, statement in words from Table 1)
C=C[C@]1(C)C[C@@H](OC(=O)COC(=O)/C=C/c2cccc(Cl)c2)[C@]2(C)[C@H](C)CC[C@]3(CCC(=O)[C@H]32)[C@@H](C)[C@@H]1O [Compound 2, (E)-2-(((3aR,4R,5R,8S,9R,12R)-8-hydroxy-4,7,9,12-tetramethyl-3-oxo-7-vinyldecahydro-4,9a-propanocyclopenta[8]annulen-5-yl)oxy)-2-oxoethyl 3-(3-chlorophenyl)acrylate] | 32 µg/mL (≈ 58.9 µM) | 32 µg/mL (≈ 58.9 µM) | 16 µg/mL (≈ 29.5 µM) | 128 µg/mL (≈ 236 µM) | 64 µg/mL (≈ 118 µM) | 8 µg/mL (≈ 14.7 µM) | better than that of the positive controls | – | – | – | – | – | – | –
C=C[C@]1(C)C[C@@H](OC(=O)COC(=O)/C=C/c2ccccc2)[C@]2(C)[C@H](C)CC[C@]3(CCC(=O)[C@H]32)[C@@H](C)[C@@H]1O [Compound 3, 2-(((3aR,4R,5R,8S,9R,12R)-8-hydroxy-4,7,9,12-tetramethyl-3-oxo-7-vinyldecahydro-4,9a-propanocyclopenta[8]annulen-5-yl)oxy)-2-oxoethyl cinnamate] | 32 µg/mL (≈ 62.9 µM) | 16 µg/mL (≈ 31.5 µM) | 4 µg/mL (≈ 7.86 µM) | > 256 µg/mL | 128 µg/mL (≈ 252 µM) | 16 µg/mL (≈ 31.5 µM) | – | – | – | – | – | – | – | –
C=C[C@]1(C)C[C@@H](OC(=O)COC(=O)/C=C/c2ccc(C#N)cc2)[C@]2(C)[C@H](C)CC[C@]3(CCC(=O)[C@H]32)[C@@H](C)[C@@H]1O [Compound 6, (E)-2-(((3aR,4R,5R,8S,9R,12R)-8-hydroxy-4,7,9,12-tetramethyl-3-oxo-7-vinyldecahydro-4,9a-propanocyclopenta[8]annulen-5-yl)oxy)-2-oxoethyl 3-(4-cyanophenyl)acrylate] | – | – | – | – | – | – | – | 64 µg/mL (≈ 120 µM) | 64 µg/mL (≈ 120 µM) | 32 µg/mL (≈ 60 µM) | > 256 µg/mL | > 256 µg/mL | 64 µg/mL (≈ 120 µM) | –
C=C[C@]1(C)C[C@@H](OC(=O)COC(=O)/C=C/c2ccc(OC)c(OC)c2)[C@]2(C)[C@H](C)CC[C@]3(CCC(=O)[C@H]32)[C@@H](C)[C@@H]1O [Compound 7, (E)-2-(((3aR,4R,5R,8S,9R,12R)-8-hydroxy-4,7,9,12-tetramethyl-3-oxo-7-vinyldecahydro-4,9a-propanocyclopenta[8]annulen-5-yl)oxy)-2-oxoethyl 3-(3,4-dimethoxyphenyl)acrylate] | 32 µg/mL (≈ 56.3 µM) | 8 µg/mL (≈ 14.1 µM) | 4 µg/mL (≈ 7.03 µM) | > 256 µg/mL | 64 µg/mL (≈ 113 µM) | 16 µg/mL (≈ 28.1 µM) | – | – | – | – | – | – | – | –
C=C[C@]1(C)C[C@@H](OC(=O)COC(=O)/C=C/c2cccc(F)c2)[C@]2(C)[C@H](C)CC[C@]3(CCC(=O)[C@H]32)[C@@H](C)[C@@H]1O [Compound 8, (E)-2-(((3aR,4R,5R,8S,9R,12R)-8-hydroxy-4,7,9,12-tetramethyl-3-oxo-7-vinyldecahydro-4,9a-propanocyclopenta[8]annulen-5-yl)oxy)-2-oxoethyl 3-(3-fluorophenyl)acrylate] | 64 µg/mL (≈ 122 µM) | 32 µg/mL (≈ 60.8 µM) | 16 µg/mL (≈ 30.4 µM) | > 256 µg/mL | > 256 µg/mL | 32 µg/mL (≈ 60.8 µM) | – | – | – | – | – | – | – | –
C=C[C@]1(C)C[C@@H](OC(=O)COC(=O)/C=C/c2cc(Br)ccc2F)[C@]2(C)[C@H](C)CC[C@]3(CCC(=O)[C@H]32)[C@@H](C)[C@@H]1O [Compound 9, (E)-2-(((3aR,4R,5R,8S,9R,12R)-8-hydroxy-4,7,9,12-tetramethyl-3-oxo-7-vinyldecahydro-4,9a-propanocyclopenta[8]annulen-5-yl)oxy)-2-oxoethyl 3-(5-bromo-2-fluorophenyl)acrylate] | 64 µg/mL (≈ 106 µM) | 32 µg/mL (≈ 52.8 µM) | 16 µg/mL (≈ 26.4 µM) | 128 µg/mL (≈ 211 µM) | 64 µg/mL (≈ 106 µM) | 64 µg/mL (≈ 106 µM) | – | – | – | – | – | – | – | –
C=C[C@]1(C)C[C@@H](OC(=O)COC(=O)/C=C/c2ccc(F)cc2)[C@]2(C)[C@H](C)CC[C@]3(CCC(=O)[C@H]32)[C@@H](C)[C@@H]1O [Compound 11, (E)-2-(((3aR,4R,5R,8S,9R,12R)-8-hydroxy-4,7,9,12-tetramethyl-3-oxo-7-vinyldecahydro-4,9a-propanocyclopenta[8]annulen-5-yl)oxy)-2-oxoethyl 3-(4-fluorophenyl)acrylate] | 32 µg/mL (≈ 60.8 µM) | 32 µg/mL (≈ 60.8 µM) | 16 µg/mL (≈ 30.4 µM) | 128 µg/mL (≈ 243 µM) | 128 µg/mL (≈ 243 µM) | 32 µg/mL (≈ 60.8 µM) | – | – | – | – | – | – | – | –
C=C[C@]1(C)C[C@@H](OC(=O)COC(=O)/C=C/c2ccc(F)c(F)c2F)[C@]2(C)[C@H](C)CC[C@]3(CCC(=O)[C@H]32)[C@@H](C)[C@@H]1O [Compound 12, (E)-2-(((3aR,4R,5R,8S,9R,12R)-8-hydroxy-4,7,9,12-tetramethyl-3-oxo-7-vinyldecahydro-4,9a-propanocyclopenta[8]annulen-5-yl)oxy)-2-oxoethyl 3-(2,3,4-trifluorophenyl)acrylate] | 128 µg/mL (≈ 228 µM) | 64 µg/mL (≈ 114 µM) | 32 µg/mL (≈ 56.9 µM) | 128 µg/mL (≈ 228 µM) | 64 µg/mL (≈ 114 µM) | 16 µg/mL (≈ 28.4 µM) | – | – | – | – | – | – | – | –
C=C[C@]1(C)C[C@@H](OC(=O)COC(=O)/C=C/c2cccc(OCc3ccccc3)c2)[C@]2(C)[C@H](C)CC[C@]3(CCC(=O)[C@H]32)[C@@H](C)[C@@H]1O [Compound 13, (E)-2-(((3aR,4R,5R,8S,9R,12R)-8-hydroxy-4,7,9,12-tetramethyl-3-oxo-7-vinyldecahydro-4,9a-propanocyclopenta[8]annulen-5-yl)oxy)-2-oxoethyl 3-(3-(benzyloxy)phenyl)acrylate] | 128 µg/mL (≈ 208 µM) | 32 µg/mL (≈ 52.1 µM) | 16 µg/mL (≈ 26 µM) | 64 µg/mL (≈ 104 µM) | > 256 µg/mL | 32 µg/mL (≈ 52.1 µM) | – | – | – | – | – | – | – | as much as tiamulin
C=C[C@]1(C)C[C@@H](OC(=O)COC(=O)/C=C/c2ccc(C(F)(F)F)cc2)[C@]2(C)[C@H](C)CC[C@]3(CCC(=O)[C@H]32)[C@@H](C)[C@@H]1O [Compound 15, (E)-2-(((3aR,4R,5R,8S,9R,12R)-8-hydroxy-4,7,9,12-tetramethyl-3-oxo-7-vinyldecahydro-4,9a-propanocyclopenta[8]annulen-5-yl)oxy)-2-oxoethyl 3-(4-(trifluoromethyl)phenyl)acrylate] | 128 µg/mL (≈ 222 µM) | 16 µg/mL (≈ 27.7 µM) | 16 µg/mL (≈ 27.7 µM) | > 256 µg/mL | 64 µg/mL (≈ 111 µM) | 8 µg/mL (≈ 13.9 µM) | better than that of the positive controls | – | – | – | – | – | – | –
C=C[C@]1(C)C[C@@H](OC(=O)COC(=O)/C=C/c2cccc(C(F)(F)F)c2)[C@]2(C)[C@H](C)CC[C@]3(CCC(=O)[C@H]32)[C@@H](C)[C@@H]1O [Compound 16, (E)-2-(((3aR,4R,5R,8S,9R,12R)-8-hydroxy-4,7,9,12-tetramethyl-3-oxo-7-vinyldecahydro-4,9a-propanocyclopenta[8]annulen-5-yl)oxy)-2-oxoethyl 3-(3-(trifluoromethyl)phenyl)acrylate] | 256 µg/mL (≈ 444 µM) | 64 µg/mL (≈ 111 µM) | 32 µg/mL (≈ 55.5 µM) | 128 µg/mL (≈ 222 µM) | 64 µg/mL (≈ 111 µM) | 64 µg/mL (≈ 111 µM) | – | – | – | – | – | – | – | –
C=C[C@]1(C)C[C@@H](OC(=O)COC(=O)/C=C/c2ccc(Cn3ccnc3)cc2)[C@]2(C)[C@H](C)CC[C@]3(CCC(=O)[C@H]32)[C@@H](C)[C@@H]1O [Compound 17] | 32 µg/mL (≈ 54.4 µM) | 16 µg/mL (≈ 27.2 µM) | 8 µg/mL (≈ 13.6 µM) | 128 µg/mL (≈ 217 µM) | 64 µg/mL (≈ 109 µM) | 16 µg/mL (≈ 27.2 µM) | – | – | – | – | – | – | – | –
C=C[C@]1(C)C[C@@H](OC(=O)COC(=O)/C=C/c2ccc3ccccc3c2)[C@]2(C)[C@H](C)CC[C@]3(CCC(=O)[C@H]32)[C@@H](C)[C@@H]1O [Compound 18, (E)-2-(((3aR,4R,5R,7S,8S,9R,9aS,12R)-8-hydroxy-4,7,9,12-tetramethyl-3-oxo-7-vinyldecahydro-4,9a-propanocyclopenta[8]annulen-5-yl)oxy)-2-oxoethyl 3-(naphthalen-2-yl)acrylate] | 128 µg/mL (≈ 229 µM) | 32 µg/mL (≈ 57.3 µM) | 16 µg/mL (≈ 28.6 µM) | 256 µg/mL (≈ 458 µM) | 256 µg/mL (≈ 458 µM) | 32 µg/mL (≈ 57.3 µM) | – | – | – | – | – | – | – | –
C=C[C@]1(C)C[C@@H](OC(=O)COC(=O)/C=C/c2ccc(C(F)(F)F)cc2F)[C@]2(C)[C@H](C)CC[C@]3(CCC(=O)[C@H]32)[C@@H](C)[C@@H]1O [Compound 19, (E)-2-(((3aR,4R,5R,8S,9R,12R)-8-hydroxy-4,7,9,12-tetramethyl-3-oxo-7-vinyldecahydro-4,9a-propanocyclopenta[8]annulen-5-yl)oxy)-2-oxoethyl 3-(2-fluoro-4-(trifluoromethyl)phenyl)acrylate] | 64 µg/mL (≈ 108 µM) | 16 µg/mL (≈ 26.9 µM) | 8 µg/mL (≈ 13.5 µM) | > 256 µg/mL | 128 µg/mL (≈ 215 µM) | 16 µg/mL (≈ 26.9 µM) | – | – | – | – | – | – | – | –
